Assay results reported in patent US20250026766A1, “Thiazolopyridyl Amide Derivatives as DNA Polymerase Theta Inhibitors” (BeiGene, Ltd., priority 2022, published 2025).
pIC50: −log10 of the molar value.

Molecular target: Pol Theta (1-894) (Homo sapiens (Human), UniProt O75417)
Assay: Biochemical Pol Theta (1-894) ATPase IC50 assay (ADP-Glo, ssDNA substrate)
Details: ADP-Glo assay with ssDNA substrate, room temperature
Description: Baculovirus Expression of Human POL theta (1-894)
Human POL Theta (1-894)-His-pFastBac1 baculovirus samples were generated using the Bac-to-Bac baculovirus expression system (Invitrogen) according to the manufacturer's protocol. […] Baculovirus amplification was achieved using infected SF9 cells at 1:2000 virus/cells ratios, and grown for 96 hours at 27° C. post-transfection. The expression scaled up for each protein was carried out in the flask 3 L from CORNING. 4 L of 3×10^6 cells/mL Sf9 cells (Expression System, Invitrogen) grown in SF900TM II SFM insect medium (Expression System) were infected with virus stock at 1:200 virus/cell ratios, and grown for 48 hours at 27° C. post-transfection. The infected cell culture was harvested by centrifugation at 6000 rpm for 15 min 4° C. in a SORVALL LYNX6000 centrifuge. The cell pellets were stored at −80° C.
The human POL Theta (1-894)-His produced as described above, were purified from Sf9 baculovirus-infected insect cell paste. The cells were lysed using sonication method, and the lysates were clarified by centrifugation.
Enzymatic reactions of Pol Theta (1-894) were performed using ADP-Glo assay with ssDNA substrate. Pol Theta (1-894) was expressed in baculovirus expression system. The inhibition activities testing for the compound disclosed herein were carried out at room temperature in assay buffer containing 40 mM Tris pH 7.5, 20 mM MgCl2, 1 mM DTT, 0.01% BSA and 0.05% Tween-20. Compounds in DMSO were dispensed into wells of a black 384 well plate (Corning 4514) using D300e digital dispenser (Tecan). The ranges of compounds final concentration were 2.62 nM˜10000 nM. 3 μL 2× enzyme solution containing 12.5 nM enzyme was added to wells. […] After 1 hour reaction, 5 μL ADP-Glo reagent (Promga V9102) was added and incubated for 40 minutes. 10 μL Kinase Detection reagent was added and incubated for 40 minutes. Luminescence was measured on a microplate reader (PHERAstar FSX, BMG labtech). The IC50 values were calculated based on inhibition of enzyme activity in the presence of increasing concentrations of compounds.

Chain of Pol Theta (1-894) (O75417 1-894): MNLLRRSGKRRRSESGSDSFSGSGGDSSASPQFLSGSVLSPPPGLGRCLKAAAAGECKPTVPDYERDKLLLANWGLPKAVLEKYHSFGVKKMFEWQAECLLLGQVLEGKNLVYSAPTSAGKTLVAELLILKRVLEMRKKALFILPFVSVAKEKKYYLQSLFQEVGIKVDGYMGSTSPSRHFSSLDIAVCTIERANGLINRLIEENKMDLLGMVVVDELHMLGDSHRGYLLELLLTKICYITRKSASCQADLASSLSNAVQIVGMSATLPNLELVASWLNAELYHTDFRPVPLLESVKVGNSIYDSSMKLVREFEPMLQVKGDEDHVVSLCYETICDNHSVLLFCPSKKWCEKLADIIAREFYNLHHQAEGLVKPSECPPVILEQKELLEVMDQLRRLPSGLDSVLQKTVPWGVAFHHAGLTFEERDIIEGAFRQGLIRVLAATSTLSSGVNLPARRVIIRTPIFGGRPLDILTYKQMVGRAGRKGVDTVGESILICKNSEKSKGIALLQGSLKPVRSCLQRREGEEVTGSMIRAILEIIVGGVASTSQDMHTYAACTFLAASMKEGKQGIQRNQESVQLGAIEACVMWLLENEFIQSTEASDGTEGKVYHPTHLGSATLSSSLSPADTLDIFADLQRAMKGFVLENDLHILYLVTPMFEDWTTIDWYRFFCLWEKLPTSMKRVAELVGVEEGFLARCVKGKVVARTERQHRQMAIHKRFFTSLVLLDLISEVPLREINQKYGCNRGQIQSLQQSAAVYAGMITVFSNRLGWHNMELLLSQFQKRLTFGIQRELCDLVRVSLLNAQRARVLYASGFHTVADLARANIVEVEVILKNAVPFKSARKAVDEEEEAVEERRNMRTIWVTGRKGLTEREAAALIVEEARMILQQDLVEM

| Structure (SMILES) | pIC50 |
| --- | --- |
| COc1ccc(C#N)cc1-c1cc(CC#N)ncc1C(=O)Nc1nc2ccc(-c3ccc(C#N)cc3)nc2s1 [Example 34, 4-(5-cyano-2-methoxyphenyl)-6-(cyanomethyl)-N-(5-(4-cyanophenyl)thiazolo[5,4-b]pyridin-2-yl)nicotinamide] | 7.80 |
| Cc1cc(-c2cc(C#N)c(=O)n(C)c2)c(C(=O)Nc2nc3ccc(-c4ccc(C#N)cc4)nc3s2)cn1 [Example 147, 5-cyano-N-(5-(4-cyanophenyl)thiazolo[5,4-b]pyridin-2-yl)-1,6′-dimethyl-6-oxo-1,6-dihydro-[3,4′-bipyridine]-3′-carboxamide] | 7.28 |
| COc1ccc(C#N)cc1-c1cc(C)ncc1C(=O)Nc1nc2ccc(-c3ccc(OC4CNC4)cc3)nc2s1 [Example 170, N-(5-(4-(azetidin-3-yloxy)phenyl)thiazolo[5,4-b]pyridin-2-yl)-4-(5-cyano-2-methoxyphenyl)-6-methylnicotinamide] | 7.59 |
| Cc1cc(-c2cc(C#N)ccc2C2CC2)c(C(=O)Nc2nc3ccc(-c4ccc(C#N)cc4)nc3s2)cn1 [Example 167, 4-(5-cyano-2-cyclopropylphenyl)-N-(5-(4-cyanophenyl)thiazolo[5,4-b]pyridin-2-yl)-6-methylnicotinamide] | 7.82 |
| COc1ccc(C#N)cc1-c1cc(C)ncc1C(=O)Nc1nc2ccc(-c3ccc(N4CCOC4=O)cc3)nc2s1 [Example 43, 4-(5-cyano-2-methoxyphenyl)-6-methyl-N-(5-(4-(2-oxooxazolidin-3-yl)phenyl)thiazolo[5,4-b]pyridin-2-yl)nicotinamide] | 7.12 |
| COc1ccc(C#N)cc1-c1cc(C)ncc1C(=O)Nc1nc2ccc(-c3ccc(C(=O)N(C)C)cc3)nc2s1 [Example 86, 4-(5-cyano-2-methoxyphenyl)-N-(5-(4-(dimethylcarbamoyl)phenyl)thiazolo[5,4-b]pyridin-2-yl)-6-methylnicotinamide] | 8.13 |
| COc1ccc([N+](=O)[O-])cc1-c1cc(C)ncc1C(=O)Nc1nc2ccc(-c3ccc(C#N)cc3)nc2s1 [Example 76, N-(5-(4-cyanophenyl)thiazolo[5,4-b]pyridin-2-yl)-4-(2-methoxy-5-nitrophenyl)-6-methylnicotinamide] | 8.24 |
| COCc1ccc(OC)c(-c2cc(C)ncc2C(=O)Nc2nc3ccc(-c4ccc(C#N)cc4)nc3s2)c1 [Example 66, N-(5-(4-cyanophenyl)thiazolo[5,4-b]pyridin-2-yl)-4-(2-methoxy-5-(methoxymethyl)phenyl)-6-methylnicotinamide] | 7.00 |
| COc1ccc(C#N)cc1-c1cc(C)ncc1C(=O)Nc1nc2ccc(N3CCOCC3)nc2s1 [Example 60, 4-(5-cyano-2-methoxyphenyl)-6-methyl-N-(5-morpholinothiazolo[5,4-b]pyridin-2-yl)nicotinamide] | 6.44 |
| COc1ccc(C#N)cc1-c1cc(C)ncc1C(=O)Nc1nc2ccc(-c3ccc(CC#N)cn3)nc2s1 [Example 168, 4-(5-cyano-2-methoxyphenyl)-N-(5-(5-(cyanomethyl)pyridin-2-yl)thiazolo[5,4-b]pyridin-2-yl)-6-methylnicotinamide] | 8.36 |
| COc1ccc(OC)c(-c2cc(C)ncc2C(=O)Nc2nc3ccc(-c4ccc(C#N)cc4)nc3s2)c1 [Example 49, N-(5-(4-cyanophenyl)thiazolo[5,4-b]pyridin-2-yl)-4-(2,5-dimethoxyphenyl)-6-methylnicotinamide] | 6.82 |
| COc1ccc(C#N)cc1-c1cc(C)ncc1C(=O)Nc1nc2ccc(-c3ccc(C(C)(C)O)cc3)nc2s1 [Example 80, 4-(5-cyano-2-methoxyphenyl)-N-(5-(4-(2-hydroxypropan-2-yl)phenyl)thiazolo[5,4-b]pyridin-2-yl)-6-methylnicotinamide] | 7.59 |
| COc1ccc(C#N)cc1-c1cc(C)ncc1C(=O)Nc1nc2ccc(-c3ccc(CC#N)cc3)nc2s1 [Example 116, 4-(5-cyano-2-methoxyphenyl)-N-(5-(4-(cyanomethyl)phenyl)thiazolo[5,4-b]pyridin-2-yl)-6-methylnicotinamide] | 8.25 |
| COc1ccc(C#N)cc1-c1cc(C)ncc1C(=O)Nc1nc2ccc(-c3ccc([C@@H](C)C#N)cc3)nc2s1 [Example 177A, (R)-4-(5-cyano-2-methoxyphenyl)-N-(5-(4-(1-cyanoethyl)phenyl)thiazolo[5,4-b]pyridin-2-yl)-6-methylnicotinamide] | 7.60 |
| Cc1cc(-c2ccccc2CO)c(C(=O)Nc2nc3ccc(-c4ccc(C#N)cc4)nc3s2)cn1 [Example 64, N-(5-(4-cyanophenyl)thiazolo[5,4-b]pyridin-2-yl)-4-(2-(hydroxymethyl)phenyl)-6-methylnicotinamide] | 6.73 |
| COc1ccc(C#N)cc1-c1cc(C)ncc1C(=O)Nc1nc2ccc(-c3ccc(C#N)cc3)nc2s1 [Example 19, 4-(5-cyano-2-methoxyphenyl)-N-(5-(4-cyanophenyl)thiazolo[5,4-b]pyridin-2-yl)-6-methylnicotinamide] | 8.07 |

Second part, the compound after the results:

| pIC50 | Structure (SMILES) |
| --- | --- |
| 7.85 | COc1cc(Oc2ccc3nc(NC(=O)c4cnncc4-c4ccccc4OC)sc3n2)ccc1Cl [Example 131, N-(5-(4-chloro-3-methoxyphenoxy)thiazolo[5,4-b]pyridin-2-yl)-5-(2-methoxyphenyl)pyridazine-4-carboxamide] |
| 7.92 | CCNC(=O)c1ccc(-c2ccc3nc(NC(=O)c4cnncc4-c4ccccc4OC)sc3n2)c(C)c1 [Example 132, N-(5-(4-(ethylcarbamoyl)-2-methylphenyl)thiazolo[5,4-b]pyridin-2-yl)-5-(2-methoxyphenyl)pyridazine-4-carboxamide] |
| 8.09 | COc1ccccc1-c1cnncc1C(=O)Nc1nc2ccc(-c3ccc(C#N)cc3F)nc2s1 [Example 128, N-(5-(4-cyano-2-fluorophenyl)thiazolo[5,4-b]pyridin-2-yl)-5-(2-methoxyphenyl)pyridazine-4-carboxamide] |
| 8.51 | COc1ccccc1-c1cnncc1C(=O)Nc1nc2ccc(-c3cc(C)c(NC(C)=O)cc3C)nc2s1 [Example 141, N-(5-(4-acetamido-2,5-dimethylphenyl)thiazolo[5,4-b]pyridin-2-yl)-5-(2-methoxyphenyl)pyridazine-4-carboxamide] |
| 7.82 | COc1ccccc1-c1cnncc1C(=O)Nc1nc2ccc(-c3ccc(N(C)C(C)=O)cc3)nc2s1 [Example 56, 5-(2-methoxyphenyl)-N-(5-(4-(N-methylacetamido)phenyl)thiazolo[5,4-b]pyridin-2-yl)pyridazine-4-carboxamide] |
| 7.54 | COc1ccccc1-c1cnncc1C(=O)Nc1nc2ccc(-c3ccc(Cl)cc3F)nc2s1 [Example 100, N-(5-(4-chloro-2-fluorophenyl)thiazolo[5,4-b]pyridin-2-yl)-5-(2-methoxyphenyl)pyridazine-4-carboxamide] |
| 7.14 | CCOc1ccc2nc(NC(=O)c3cnncc3-c3ccccc3OC)sc2n1 [Example 95, N-(5-ethoxythiazolo[5,4-b]pyridin-2-yl)-5-(2-methoxyphenyl)pyridazine-4-carboxamide] |
| 7.64 | COc1ccccc1-c1cnncc1C(=O)Nc1nc2ccc(Oc3ccc(Cl)c(C)c3)nc2s1 [Example 129, N-(5-(4-chloro-3-methylphenoxy)thiazolo[5,4-b]pyridin-2-yl)-5-(2-methoxyphenyl)pyridazine-4-carboxamide] |
| 7.57 | COc1ccccc1-c1cnncc1C(=O)Nc1nc2ccc(-c3ccc(Cl)cc3C)nc2s1 [Example 97, N-(5-(4-chloro-2-methylphenyl)thiazolo[5,4-b]pyridin-2-yl)-5-(2-methoxyphenyl)pyridazine-4-carboxamide] |
| 7.14 | COc1ccc(C#N)cc1-c1cc(C)ncc1C(=O)Nc1nc2ccc(-c3ccc(C(=O)NC(C)C)cc3)nc2s1 [Example 74, 4-(5-cyano-2-methoxyphenyl)-N-(5-(4-(isopropylcarbamoyl)phenyl)thiazolo[5,4-b]pyridin-2-yl)-6-methylnicotinamide] |
| 7.08 | COc1ccccc1-c1cnncc1C(=O)Nc1nc2ccc(-c3ccc(C(=O)N4CCOCC4)cc3)nc2s1 [Example 103, 5-(2-methoxyphenyl)-N-(5-(4-(morpholine-4-carbonyl)phenyl)thiazolo[5,4-b]pyridin-2-yl)pyridazine-4-carboxamide] |
| 8.21 | COc1ccccc1-c1cnncc1C(=O)Nc1nc2ccc(-c3ccc(C#N)cc3)nc2s1 [Example 83, N-(5-(4-cyanophenyl)thiazolo[5,4-b]pyridin-2-yl)-5-(2-methoxyphenyl)pyridazine-4-carboxamide] |
| 8.08 | COc1ccc(S(C)(=O)=O)cc1-c1cc(C)ncc1C(=O)Nc1nc2ccc(-c3ccc(C(N)=O)c(C)c3)nc2s1 [Example 175, N-(5-(4-carbamoyl-3-methylphenyl)thiazolo[5,4-b]pyridin-2-yl)-4-(2-methoxy-5-(methylsulfonyl)phenyl)-6-methylnicotinamide] |
